Assay results reported in ChEMBL document CHEMBL3867432, “Autophagy regulates Selumetinib (AZD6244) induced-apoptosis in colorectal cancer cells” (Eur J Med Chem, 2016).
Activity calls are given as the source filed them. The rule behind the calls is not given here.

How the values were obtained:
[1] = Cell cycle arrest in human SW480 cells assessed as accumulation at subG1 phase at 3 uM after 48 hrs by propidium iodide staining based flow cytometry (reference value: 5.7%); format: functional
[2] = test system: SW480; experiment: Induction of apoptosis in human SW480 cells after 48 hrs by annexin V-FITC/propidium iodide staining based flow cytometry; format: functional, cell-based
[3] = test system: SW480; experiment: Induction of autophagy in human SW480 cells assessed as increase in LC3-2 level at 10 uM after 1 to 4 hrs by Western blot analysis; format: functional, cell-based
[4] = test system: HT-29; experiment: Induction of apoptosis in human HT-29 cells assessed as apoptotic cells at 10 uM after 48 hrs in presence of autophagy inhibitor CQ by annexin V-FITC/propidium iodide staining based flow cytometry (reference value: 15.7 to 19.6%); format: functional
[5] = test system: SW480; experiment: Induction of apoptosis in human SW480 cells assessed as apoptotic cells at 10 uM after 48 hrs in presence of autophagy inhibitor CQ by annexin V-FITC/propidium iodide staining based flow cytometry (reference value: 9.6 to 15.3%); format: functional
[6] = test system: SW480; experiment: Induction of apoptosis in human SW480 cells assessed as accumulation at subG1 phase at 10 uM after 48 hrs in presence of pan caspase inhibitor zVAD by Annexin-V-FITC/propidium iodide staining based flow cytometry (reference value: 15.3%); format: functional
[7] = test system: HT-29; experiment: Induction of apoptosis in human HT-29 cells assessed as apoptotic cells at 10 uM after 48 hrs in presence of autophagy inhibitor bafilomycin A1 by annexin V-FITC/propidium iodide staining based flow cytometry (reference value: 15.7 to 19.6%); format: functional
[8] = test system: SW480; experiment: Induction of apoptosis in human SW480 cells assessed as necrotic cells at 1 uM after 48 hrs by annexin V-FITC/propidium iodide staining based flow cytometry (reference value: 2.8%); format: functional
[9] = test system: SW480; experiment: Induction of apoptosis in human SW480 cells assessed as apoptotic cells at 10 uM after 48 hrs in presence of autophagy inhibitor bafilomycin A1 by annexin V-FITC/propidium iodide staining based flow cytometry (reference value: 9.6 to 15.3%); format: functional
[10] = test system: HT-29; experiment: Induction of apoptosis in human HT-29 cells assessed as apoptotic cells at 10 uM after 48 hrs by annexin V-FITC/propidium iodide staining based flow cytometry (reference value: 15.7 to 19.6%); format: functional
[11] = Cell cycle arrest in human SW480 cells assessed as accumulation at G1 phase at 10 uM after 48 hrs by propidium iodide staining based flow cytometry (reference value: 61.2%); format: functional
[12] = test system: SW480; experiment: Induction of apoptosis in human SW480 cells assessed as increase in LC3-2 level at 10 uM after 48 hrs in presence of autophagy inhibitor bafilomycin A1 by Western blot analysis; format: functional, cell-based
[13] = Cell cycle arrest in human SW480 cells assessed as accumulation at G1 phase at 3 uM after 48 hrs by propidium iodide staining based flow cytometry (reference value: 61.2%); format: functional
[14] = test system: SW480; experiment: Induction of apoptosis in human SW480 cells assessed as apoptotic cells at 1 uM after 48 hrs by annexin V-FITC/propidium iodide staining based flow cytometry (reference value: 10.6%); format: functional
[15] = test system: SW480; experiment: Induction of apoptosis in human SW480 cells assessed as apoptotic cells at 10 uM after 48 hrs by annexin V-FITC/propidium iodide staining based flow cytometry (reference value: 9.6 to 15.3%); format: functional
[16] = Cell cycle arrest in human SW480 cells assessed as accumulation at subG1 phase at 1 uM after 48 hrs by propidium iodide staining based flow cytometry (reference value: 5.7%); format: functional
[17] = Antiproliferative activity against human SW480 cells after 72 hrs by MTT assay; format: functional, cell-based; conditions: SW480, 72 h
[18] = test system: SW480; experiment: Induction of apoptosis in human SW480 cells assessed as necrotic cells at 3 uM after 48 hrs by annexin V-FITC/propidium iodide staining based flow cytometry (reference value: 2.8%); format: functional
[19] = test system: SW480; experiment: […] of autophagy in human SW480 cells expressing mCherry-eGFPeLC3 assessed as accumulation of autophagosomes at 10 uM after 2 hrs by confocal microscopic analysis; format: functional, cell-based
[20] = test system: SW480; experiment: Induction of apoptosis in human SW480 cells assessed as apoptotic cells at 3 uM after 48 hrs by annexin V-FITC/propidium iodide staining based flow cytometry (reference value: 10.6%); format: functional
[21] = test system: SW480; experiment: Induction of apoptosis in human SW480 cells assessed as accumulation at subG1 phase at 10 uM after 48 hrs in presence of autophagy inducer rapamycin by propidium iodide staining based flow cytometry (reference value: 5.7 to 15.3%); format: functional
[22] = test system: SW480; experiment: Induction of apoptosis in human SW480 cells assessed as apoptotic cells at 10 uM after 48 hrs in presence of autophagy inhibitor 3-MA by annexin V-FITC/propidium iodide staining based flow cytometry (reference value: 9.6 to 15.3%); format: functional
[23] = test system: SW480; experiment: Induction of apoptosis in human SW480 cells assessed as apoptotic cells at 10 uM after 48 hrs in presence of autophagy inducer rapamycin by annexin V-FITC/propidium iodide staining based flow cytometry (reference value: 9.6 to 15.3%); format: functional
[24] = test system: SW480; experiment: Induction of apoptosis in human SW480 cells assessed as necrotic cells at 10 uM after 48 hrs by annexin V-FITC/propidium iodide staining based flow cytometry (reference value: 2.8%); format: functional
[25] = Cell cycle arrest in human SW480 cells assessed as accumulation at subG1 phase at 10 uM after 48 hrs by propidium iodide staining based flow cytometry (reference value: 5.7 to 15.3%); format: functional
[26] = Cell cycle arrest in human SW480 cells after 48 hrs by propidium iodide staining based flow cytometry; format: functional
[27] = Cell cycle arrest in human SW480 cells assessed as accumulation at G1 phase at 1 uM after 48 hrs by propidium iodide staining based flow cytometry (reference value: 61.2%); format: functional
[28] = test system: SW480; experiment: Induction of apoptosis in beclin-1 silenced human SW480 cells assessed as apoptotic cells at 10 uM after 48 hrs by annexin V-FITC/propidium iodide staining based flow cytometry (reference value: 14.4%); format: functional

Structure (SMILES): Cn1cnc2c(F)c(Nc3ccc(Br)cc3Cl)c(C(=O)NOCCO)cc21 [SELUMETINIB]
- Activity [1]: 17.8%
- Activity [2]: Dose-dependent effect
- Activity [3]: Active
- Activity [4]: 58.6%
- Activity [5]: 55.4%
- Activity [6]: 24.1%
- Activity [7]: 68.3%
- Activity [8]: 4.2%
- Activity [9]: 64.9%
- Activity [10]: 43.9 - 51.2%
- Activity [11]: 58%
- Activity [12]: Active
- Activity [13]: 59.6%
- Activity [14]: 17.4%
- Activity [15]: 29 - 42.9%
- Activity [16]: 10%
- IC50 [17]: 422 nM
- Activity [18]: 4.9%
- inhibition [19]: Active
- Activity [20]: 23.1%
- Activity [21]: 11.9%
- Activity [22]: 41.1%
- Activity [23]: 21.4%
- Activity [24]: 5.3%
- Activity [25]: 23.7 to 42.9%
- Activity [26]: Dose-dependent effect
- Activity [27]: 75%
- Activity [28]: 53.3%
